{"source": "paper PMC9862227", "about": "“ATP and nucleic acids competitively modulate LLPS of the SARS-CoV2 nucleocapsid protein” (Communications Biology, 2023)", "biological_target": "T1, N (1-249) (Severe acute respiratory syndrome coronavirus 2, UniProt P0DTC9)", "T1 construct": "fragment 1-249 of the 419-residue protein (IDR1, NTD, IDR2); pET-28a, N-terminal 6xHis-SUMO tag removed with TEV protease; E. coli BL21; 15N-labelled", "experiment": "biochemical", "type": "binding"}
{"smiles": "Nc1ncnc2c1ncn2[C@@H]1O[C@H](COP(=O)(O)OP(=O)(O)OP(=O)(O)O)[C@@H](O)[C@H]1O", "note": "[ATP]", "values": [{"measurement": "Kd", "result": "2000 ± 200", "unit": "µM"}]}
